Test results as given in patent US20150174144A1, “TETRACYCLINE COMPOUNDS FOR TREATING NEURODEGENERATIVE DISORDERS” (PARATEK PHARMACEUTICALS, INC., priority 2012, published 2015).

Assays:
GLP phototoxicity assay = experiment: GLP phototoxicity assay
Method: The compound was also shown to be negative in a GLP phototoxicity assay. […] Both 14-day acute toxicity and 28-day toxicology study were performed in rats with Compound 1 along with minocycline for comparison. Animals were administered daily oral doses from 15 to 150 mg/kg for up to 4 weeks followed by a recovery period.

[1] = tested on: focal cerebral ischemia (permanent MCA occlusion); experiment: Rat stroke model, permanent MCA occlusion; type: in vivo, Male Wistar rats

## CCc1cc(N(C)C)c2c(c1O)C(=O)C1=C(O)[C@]3(O)C(=O)C(C(N)=O)=C(O)[C@@H](N(C)C)[C@@H]3C[C@@H]1C2 [Compound 1]
GLP phototoxicity assay
  GLP phototoxicity assay result: negative
[1]; 40 mg/kg i.v. at −90 min, 90 min, 6 hr after MCAO, permanent
  Neurological score: 1.1 ± 0.3
[1]; 40 mg/kg i.v. at −90 min, 90 min, 6 hr after MCAO, permanent, 24 hr after MCAO
  Infarct volume (Means ± SD): 145.7 ± 33.9 mm3
[1]; permanent occlusion, treatment started at 90 min pre-occlusion
  Effect on infarct volume: statistically significant reductions in infarct volume
